Reference: publication PMC9508239 (Nature Communications, 2022)

Columns and labels:
IR F64A = assay: Auto-phosphorylation of IR in 293FT cells expressing IR F64A; assay type: cell-based, human; details: 10 nM, 10 min
Protocol: (§1) For the activation assay, the short isoform of human IR in pCS2-MYC was used as described previously[20],[49]. Plasmid transfections into 293FT cells were performed with Lipofectamin^TM 2000 (Invitrogen).
(§2) The cells were incubated with the lysis buffer B [50 mM Hepes pH 7.4, 150 mM NaCl, 10% Glycerol, 1% Triton X-100, 1 mM EDTA, 100 mM sodium fluoride, 2 mM sodium orthovanadate, 20 mM sodium pyrophosphate, 0.5 mM dithiothreitol (DTT), 2 mM phenylmethylsulfonyl fluoride (PMSF)] supplemented with cOmplete Protease Inhibitor Cocktail (Roche), PhosSTOP (Sigma), and 25 U/ml turbo nuclease (Accelagen) on ice for 1 h. After centrifuging at 20,817×g at 4 °C for 10 min, the concentrations of cell lysate were measured using Micro BCA Protein Assay Kit (Thermo Scientific). About 50–60 μg total proteins were analyzed by SDS-PAGE and quantitative Western blotting. […] For quantitative western blots, anti-rabbit immunoglobulin G (IgG) (H + L) (WB, 1:5000; Dylight 800 conjugates, Cat. #5151) and anti-mouse IgG (H + L) (WB, 1:5000; Dylight 680 conjugates, Cat. #5470) (Cell Signaling) were used as secondary antibodies. […]

blood glucose = assay: Oral glucose tolerance test after chronic treatment; assay type: in vivo, mouse; parameters: Mean Diff. of blood glucose (OGTT) / blood glucose (OGTT) / Supplementary Figure 10d (area under the OGTT glucose curve): unit not given here; details: for Mean Diff. of blood glucose (OGTT), PBS vs. treatment: PBS minus treatment, Tukey's multiple comparisons test; for Mean Diff. of blood glucose (OGTT): Dunnett's multiple comparisons test; for Supplementary Figure 10d (area under the OGTT glucose curve): time 0-120
Protocol: For the oral glucose tolerance test, mice were fasted for 6 h and their blood glucose levels (T = 0) were measured with tail bleeding using a glucometer (AlphaTRAK). After then, glucose (2 g/kg body weight) was administered by oral gavage. Blood glucose levels were measured at the indicated time points after glucose administration. For Fig. S10f, 2 months old male mice were fasted for 14 h. […] One hour later, livers were collected.

IR R14W = assay: Auto-phosphorylation of IR in 293FT cells expressing IR R14W; assay type: cell-based, human
Protocol: as §1, §2

endogenous murine IR = assay: IR signaling (pY IR, pAKT, pERK) in GFP MEFs, tamoxifen-inducible IR knockout (Fig. S8); assay type: cell-based, mouse; details: tamoxifen treatment, high concentration of insulin
Protocol: IR^F/F mice (Jackson #006955[71]) were crossed with CAG-CRE/ERT mice (Jackson #004682) to generate IR^F/F; CRE-ERT mice. The IR^F/F; CRE-ERT mice were backcrossed nine generations to C57BL/6 (Jackson #000664). The MEFs from IR^F/F; CRE-ERT mice were isolated as described earlier with some modifications. E14.5 embryos were minced with sterile scalpels and incubated with 0.25% trypsin-EDTA for 10 min at 37 °C and a 5% CO2 incubator. Fresh 0.25% trypsin-EDTA was added. After 10 min incubation, cells were put into fresh DMEM containing supplemented 10% (v/v) FBS, 2 mM L-glutamine, 55 μM β-mercaptoethanol, and 1% penicillin/streptomycin, and then centrifuged at 290×g for 5 min. […]
The cells were incubated with the lysis buffer B [50 mM Hepes pH 7.4, 150 mM NaCl, 10% Glycerol, 1% Triton X-100, 1 mM EDTA, 100 mM sodium fluoride, 2 mM sodium orthovanadate, 20 mM sodium pyrophosphate, 0.5 mM dithiothreitol (DTT), 2 mM phenylmethylsulfonyl fluoride (PMSF)] supplemented with cOmplete Protease Inhibitor Cocktail (Roche), PhosSTOP (Sigma), and 25 U/ml turbo nuclease (Accelagen) on ice for 1 h. After centrifuging at 20,817×g at 4 °C for 10 min, the concentrations of cell lysate were measured using Micro BCA Protein Assay Kit (Thermo Scientific). About 50–60 μg total proteins were analyzed by SDS-PAGE and quantitative Western blotting. […]

IR F497A = assay: Auto-phosphorylation of IR in 293FT cells expressing IR F497A; assay type: cell-based, human
Protocol: as §1, §2

IR F96A = assay: Auto-phosphorylation of IR in 293FT cells expressing IR F96A; assay type: cell-based, human; details: 10 nM, 10 min
Protocol: as §1, §2

IR = assay: Functional IR levels in liver after treatment (Fig. S10e,f); assay type: in vivo, mouse
Protocol: as §2
For the oral glucose tolerance test, mice were fasted for 6 h and their blood glucose levels (T = 0) were measured with tail bleeding using a glucometer (AlphaTRAK). […] Blood glucose levels were measured at the indicated time points after glucose administration. […]

IR-D707A = assay: IR signaling (pY IR, pAKT, pERK) in IR-D707A MEFs; assay type: cell-based, mouse
Protocol: IR^F/F mice (Jackson #006955[71]) were crossed with CAG-CRE/ERT mice (Jackson #004682) to generate IR^F/F; CRE-ERT mice. The IR^F/F; CRE-ERT mice were backcrossed nine generations to C57BL/6 (Jackson #000664). The MEFs from IR^F/F; CRE-ERT mice were isolated as described earlier with some modifications. E14.5 embryos were minced with sterile scalpels and incubated with 0.25% trypsin-EDTA for 10 min at 37 °C and a 5% CO2 incubator. Fresh 0.25% trypsin-EDTA was added. After 10 min incubation, cells were put into fresh DMEM containing supplemented 10% (v/v) FBS, 2 mM L-glutamine, 55 μM β-mercaptoethanol, and 1% penicillin/streptomycin, and then centrifuged at 290×g for 5 min. After the supernatant was removed, the cells were resuspended in the DMEM and incubated at 37 °C and 5% CO2 incubator. The medium was changed the next day to remove debris and floating cells.
Viral supernatants were collected at 2 days and 3 days after transfection, concentrated with a concentrator, and added to IR^F/F; CRE-ERT MEFs with 4 μg/ml of polybrene. Cells were selected with 2 μg/ml of puromycin 2 days after infection.
as §1
The cells were incubated with the lysis buffer B [50 mM Hepes pH 7.4, 150 mM NaCl, 10% Glycerol, 1% Triton X-100, 1 mM EDTA, 100 mM sodium fluoride, 2 mM sodium orthovanadate, 20 mM sodium pyrophosphate, 0.5 mM dithiothreitol (DTT), 2 mM phenylmethylsulfonyl fluoride (PMSF)] supplemented with cOmplete Protease Inhibitor Cocktail (Roche), PhosSTOP (Sigma), and 25 U/ml turbo nuclease (Accelagen) on ice for 1 h. After centrifuging at 20,817×g at 4 °C for 10 min, the concentrations of cell lysate were measured using Micro BCA Protein Assay Kit (Thermo Scientific). About 50–60 μg total proteins were analyzed by SDS-PAGE and quantitative Western blotting. The following antibodies were purchased from commercial sources: Anti-IR-pY1150/1151 (WB, 1:1000; 19H6; labeled as pY IR, Cat. #3024), anti-AKT (WB, 1:1000; 40D4, Cat. #2920), anti-pS473 AKT (WB, 1:1000; D9E, Cat. #4060), anti-ERK1/2 (WB, 1:1000; L34F12, Cat. #4696), anti-pERK1/2 (WB, […]; 197G2, Cat. #4377), anti-IRS1-pS616 (WB, 1:1000; C15H5, Cell Signaling, Cat. #3203); anti-IRS1 (WB, 1:1000; A301-158A, Bethyl Laboratory); anti-IR (WB, 1:500, CT-3, Santa Cruz; labeled as IR for primary hepatocytes and MEFs, Cat. #sc-57342); anti-IR (WB, 1:1000; EPR23566-103; labeled as IR for Fig. S10, ab278100, Abcam); anti-Myc (WB, 1:2000; 9E10, Cat. #11667149001, Roche; labeled as IR for 293FT cells). For quantitative western blots, anti-rabbit immunoglobulin G (IgG) (H + L) (WB, 1:5000; Dylight 800 conjugates, Cat. #5151) and anti-mouse IgG (H + L) (WB, 1:5000; Dylight 680 conjugates, Cat. #5470) (Cell Signaling) were used as secondary antibodies. The membranes were scanned with the Odyssey Infrared Imaging System (Li-COR, Lincoln, NE).

## insulin: native IR ligand used as comparator; Humulin in the in vivo tests
IR F64A
  IR activation: defective insulin-dependent activation
Blood glucose; Row 1 (time 0)
  Mean Diff. of blood glucose (OGTT), PBS vs. treatment: -8
Blood glucose; Row 1 vs. Row 2 (time 0 minus time 15)
  Mean Diff. of blood glucose (OGTT): -254.8
Blood glucose; Row 1 vs. Row 3 (time 0 minus time 30)
  Mean Diff. of blood glucose (OGTT): -168.8
Blood glucose; Row 1 vs. Row 4 (time 0 minus time 60)
  Mean Diff. of blood glucose (OGTT): -60
Blood glucose; Row 1 vs. Row 5 (time 0 minus time 120)
  Mean Diff. of blood glucose (OGTT): -35.2
Blood glucose; Row 2 (time 15)
  Mean Diff. of blood glucose (OGTT), PBS vs. treatment: -66.2
Blood glucose; Row 3 (time 30)
  Mean Diff. of blood glucose (OGTT), PBS vs. treatment: -9
Blood glucose; Row 4 (time 60)
  Mean Diff. of blood glucose (OGTT), PBS vs. treatment: 1
Blood glucose; Row 5 (time 120)
  Mean Diff. of blood glucose (OGTT), PBS vs. treatment: -9.8
Blood glucose; mouse 1
  Supplementary Figure 10d (area under the OGTT glucose curve): 37808
Blood glucose; mouse 2
  Supplementary Figure 10d (area under the OGTT glucose curve): 37043
Blood glucose; mouse 3
  Supplementary Figure 10d (area under the OGTT glucose curve): 31785
Blood glucose; mouse 4
  Supplementary Figure 10d (area under the OGTT glucose curve): 39735
Blood glucose; mouse 5
  Supplementary Figure 10d (area under the OGTT glucose curve): 46950
Blood glucose; time 0, mouse 1
  blood glucose (OGTT): 197
Blood glucose; time 0, mouse 2
  blood glucose (OGTT): 199
Blood glucose; time 0, mouse 3
  blood glucose (OGTT): 224
Blood glucose; time 0, mouse 4
  blood glucose (OGTT): 245
Blood glucose; time 0, mouse 5
  blood glucose (OGTT): 272
Blood glucose; time 15, mouse 1
  blood glucose (OGTT): 530
Blood glucose; time 15, mouse 2
  blood glucose (OGTT): 406
Blood glucose; time 15, mouse 3
  blood glucose (OGTT): 488
Blood glucose; time 15, mouse 4
  blood glucose (OGTT): 463
Blood glucose; time 15, mouse 5
  blood glucose (OGTT): 524
Blood glucose; time 30, mouse 1
  blood glucose (OGTT): 434
Blood glucose; time 30, mouse 2
  blood glucose (OGTT): 354
Blood glucose; time 30, mouse 3
  blood glucose (OGTT): 258
Blood glucose; time 30, mouse 4
  blood glucose (OGTT): 409
Blood glucose; time 30, mouse 5
  blood glucose (OGTT): 526
Blood glucose; time 60, mouse 1
  blood glucose (OGTT): 273
Blood glucose; time 60, mouse 2
  blood glucose (OGTT): 303
Blood glucose; time 60, mouse 3
  blood glucose (OGTT): 206
Blood glucose; time 60, mouse 4
  blood glucose (OGTT): 300
Blood glucose; time 60, mouse 5
  blood glucose (OGTT): 355
Blood glucose; time 120, mouse 1
  blood glucose (OGTT): 211
Blood glucose; time 120, mouse 2
  blood glucose (OGTT): 262
Blood glucose; time 120, mouse 3
  blood glucose (OGTT): 257
Blood glucose; time 120, mouse 4
  blood glucose (OGTT): 275
Blood glucose; time 120, mouse 5
  blood glucose (OGTT): 308
IR R14W
  IR activation: reduced insulin-dependent IR activation
Endogenous murine IR
  downstream signaling through residual IR: could activate downstream signaling
IR F497A
  IR activation: can be activated by insulin but with lesser efficiency than IR WT
IR F96A
  IR activation: defective insulin-dependent activation
IR; 50U/kg, i.p., 3 consecutive days
  IR downregulation: not significantly downregulated
IR; one hour after insulin 0.1U/kg or S597 0.15U/kg
  IR downregulation: not significantly downregulated
IR-D707A
  phosphorylation of AKT: greatly reduced
  phosphorylation of ERK: greatly reduced
  phosphorylation of IR: remarkedly reduced
IR-D707A; high concentration of insulin
  pAKT: significantly increased pAKT and pERK
  pERK: significantly increased pAKT and pERK
